From US20260041653A1, “AN HDAC INHIBITOR FOR TREATING CANCER WITH A MODIFIED STK11 ACTIVITY OR EXPRESSION” (Tango Therapeutics, Inc., priority 2022, published 2026)
pIC50: −log10 of the molar value. Marks after values point to notes of the source that are not given here.

Tests used:
HDAC10 = target: T1, HDAC10 (Homo sapiens, UniProt Q969S8); assay: Cellular NanoBRET assay, HDAC10; type: cell-based
T1 construct: expressed in transfected cells

[1] = Caverage in mice with STK11-deleted MC38 tumors; type: in vivo, mouse; conditions: doses used in FIG. 12B and 12C

T1 sequence (Q969S8 whole entry): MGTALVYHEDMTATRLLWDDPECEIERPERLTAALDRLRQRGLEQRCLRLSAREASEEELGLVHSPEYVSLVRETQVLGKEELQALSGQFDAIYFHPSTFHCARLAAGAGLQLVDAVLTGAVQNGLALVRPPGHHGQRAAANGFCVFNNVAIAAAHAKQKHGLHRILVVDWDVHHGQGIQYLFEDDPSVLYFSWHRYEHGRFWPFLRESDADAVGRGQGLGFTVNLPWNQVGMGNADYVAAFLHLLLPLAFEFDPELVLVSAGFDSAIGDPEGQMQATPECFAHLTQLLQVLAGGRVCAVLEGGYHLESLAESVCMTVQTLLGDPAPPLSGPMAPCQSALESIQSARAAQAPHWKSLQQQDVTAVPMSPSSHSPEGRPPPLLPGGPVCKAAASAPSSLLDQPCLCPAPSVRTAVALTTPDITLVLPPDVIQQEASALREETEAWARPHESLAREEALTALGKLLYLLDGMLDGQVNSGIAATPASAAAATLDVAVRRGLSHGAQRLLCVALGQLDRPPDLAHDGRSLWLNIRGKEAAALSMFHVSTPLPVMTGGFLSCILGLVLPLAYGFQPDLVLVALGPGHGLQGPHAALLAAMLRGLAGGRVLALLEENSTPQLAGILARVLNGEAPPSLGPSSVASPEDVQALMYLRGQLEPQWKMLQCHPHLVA

| pIC50 (HDAC10) | Cavg, u [1] | Compound |
| --- | --- | --- |
| < 4.52 |  | Nc1cc(F)ccc1NC(=O)c1ccc(CNC(=O)/C=C/c2cccnc2)cc1 [Chidamide, reference compound] |
|  | 0.132* uM | O=C(CCCCCCC(=O)Nc1ccccc1)NO [Vorinostat, reference compound] |
